Patent publication US5441949A, “Carbapenem antibiotic compounds” (Zeneca Limited, priority 1992, dated 1995)
Where a name gives a salt, the structure may show the parent alone.

Columns and labels:
P. morganii I + 001 = test: antibacterial activity in vitro, agar-dilution MIC, Diagnostic Sensitivity Test, inoculum 10^4 CFU/spot; type: cell-based; conditions: Morganella morganii
B. fragilis AMP S = test: as above; type: cell-based; conditions: Bacteroides fragilis
[1] = system: Enterobacter cloacae P99-; test: as above; type: cell-based
S. aureus Oxford = test: as above; type: cell-based; conditions: Staphylococcus aureus
E. coli DCO = test: microbe, parasite or virus in culture; conditions: Escherichia coli
From the text: The antibacterial activity is described in terms of the minimum inhibitory concentration (MIC) determined by the agar-dilution technique with an inoculum size of 10^4 CFU/spot.

C[C@@H](O)[C@H]1C(=O)N2C(C(=O)O)=C(S[C@@H]3CN[C@H](C(=O)Nc4cc(C(=O)O)c5ncccc5c4)C3)[C@H](C)[C@H]12 [Example 1, (1R,5S,6S,8R,2'S,4'S) 2-(2-(8-Carboxyquinol-6-ylcarbamoyl)pyrrolidin-4-ylthio)-6-(1-hydroxyethyl)-1-methylcarbapenem-3-carboxylic Acid Disodium Salt] showed an MIC (P. morganii I + 001) of 0.03 µg/mL, an MIC (B. fragilis AMP S) of 0.5 µg/mL and an MIC [1] of 0.03 µg/mL. For the same compound, the MIC (S. aureus Oxford) was 0.13 µg/mL and the MIC (E. coli DCO) was 0.03 µg/mL.
